Data taken from PubChem BioAssay (NCI).
“And” between values parts separate entries of the source, which are not always exact repeats. Equal values may be shown once.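 Compound exposure: 48 hours, 5 concentrations, 96-well plates. GI50 is the concentration that inhibits growth by half. TGI marks complete inhibition of growth.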

Experiments:
Experiment in all cases: growth of human tumour cells (NCI), 48 h
HCT-116 colon = tested on: HCT-116 colon
HT29 colon = tested on: HT29 colon
HS 578T breast = tested on: HS 578T breast
MDA-MB-435 = tested on: MDA-MB-435
HCT-15 colon = tested on: HCT-15 colon
NCI-H460 lung = tested on: NCI-H460 lung

SMILES | GI50 (HCT-116 colon) [µM] | TGI (HCT-116 colon) | GI50 (HT29 colon) | TGI (HT29 colon) | GI50 (HS 578T breast) [µM] | TGI (HS 578T breast) | GI50 (MDA-MB-435) [µM] | TGI (MDA-MB-435) [µM] | GI50 (HCT-15 colon) [µM] | TGI (HCT-15 colon) | GI50 (NCI-H460 lung) [µM] | TGI (NCI-H460 lung)
COc1cc2c3c(n(CCCN4CCCNCC4)c(=O)c2cc1OC)-c1cc2c(cc1C3=O)OCO2 | 0.282 | 2.3 µM | 1.15 µM | 17.6 µM | 2.09 | 14.2 µM | 2.58 | 13.7 | 1.09 | 6.74 µM | 0.0545 | 6.47 µM
O=[N+]([O-])/C=C/c1cc2ccc3ccccc3c2[nH]1 |  | 3.43 µM |  | 5.86 µM |  | 22.2 µM |  | 3.73 |  | > 23.7 µM |  | 5.61 µM
Cn1c(NCC(CN2CCCC2)OC(=O)c2ccccc2)cc(=O)n(C)c1=O (stereo not given) | > 100 | > 100 µM | > 100 µM | > 100 µM | > 100 | > 100 µM | > 100 | > 100 | > 100 | > 100 µM | > 100 | > 100 µM
NC(=O)CCc1ccccc1Oc1nccc(-c2c(-c3ccc(F)cc3)ncn2C2CCNCC2)n1 | > 25 | > 25 µM | > 25 µM | > 25 µM | > 25 | > 25 µM | > 25 | > 25 | > 25 | > 25 µM | > 25 | > 25 µM
COc1cc(/C=C/C(=O)c2c(C)nc3ccccc3c2C)ccc1OCCCCOc1cc2c(cc1OC)C(=O)N1CCC[C@H]1C=N2 | 0.432 | 6.49 µM | 0.403 µM | 2.02 µM | 0.229 | 0.624 µM | 0.274 | 0.873 | 1.71 | 5.18 µM | 0.832 | 2.58 µM
NS(=O)(=O)c1ccc(N=C2C(=O)Nc3ccccc32)cc1 |  | > 100 µM |  | > 100 µM |  | > 100 µM |  | 72.7 |  | > 100 µM |  | > 100 µM
C=C1C(=O)OC2CC1C(OC(C)=O)C/C(C)=C/CC/C(C)=C\CCC2(C)O (stereo not given) |  | 12.2 µM and 7.66 µM | 1.69 µM and 4.87 µM | 6.44 µM and 18 µM |  | 25.1 µM and 26.2 µM |  | 18.6 |  | 13.5 µM and 3.63 µM |  | 14.1 µM and 8.22 µM
CS(=N)(=O)CCC(N)P(=O)(O)O (stereo not given) |  | > 100 µM |  | > 100 µM |  | > 100 µM |  | > 100 |  | > 100 µM |  | > 100 µM
O=C(Cc1ccc(Nc2ccnc(C(F)(F)F)c2)cc1)N/N=C/c1ccccc1O | 1.92 | > 39.6 µM | 6.53 µM | 56 µM | 2.66 | 29 µM | 3.67 | > 77.5 | 0.634 | > 69.5 µM | 1.37 | 10.6 µM
O=C(O)CNCCc1ccccc1 |  | > 100 µM |  | > 100 µM |  | > 100 µM |  | > 100 |  | > 100 µM |  | > 100 µM
CCCOc1ccc(/C=N/Nc2cc(C)nc3ccc(Cl)cc23)cc1 | 1.7 | 3.32 µM | 1.8 µM | 3.49 µM | 2.15 | 4.63 µM | 1.8 | 3.24 | 1.52 | 2.94 µM | 2.04 | 4.03 µM
C/C(=N\O)c1cccc(Nc2cc(-c3ccccc3)nc3c(O)cccc23)c1 | 2.41 | 15.9 µM | 12.3 µM | 42.7 µM | 4.34 | > 60 µM | 0.271 | 2.01 | 2.77 | 20.9 µM | 2.49 | 17.2 µM
